Assays:
[1] = biological target: T1, prolyl 4-hydroxylase (Gallus gallus, UniProt P16924); assay: in vitro enzyme assay, cell free, highly purified prolyl 4-hydroxylase (test (a)); format: biochemical
T1 construct: a highly purified preparation of prolyl 4-hydroxylase; from tissue; chick embryos according to the cited method (own knowledge)
T1 sequence (P16924 1-516): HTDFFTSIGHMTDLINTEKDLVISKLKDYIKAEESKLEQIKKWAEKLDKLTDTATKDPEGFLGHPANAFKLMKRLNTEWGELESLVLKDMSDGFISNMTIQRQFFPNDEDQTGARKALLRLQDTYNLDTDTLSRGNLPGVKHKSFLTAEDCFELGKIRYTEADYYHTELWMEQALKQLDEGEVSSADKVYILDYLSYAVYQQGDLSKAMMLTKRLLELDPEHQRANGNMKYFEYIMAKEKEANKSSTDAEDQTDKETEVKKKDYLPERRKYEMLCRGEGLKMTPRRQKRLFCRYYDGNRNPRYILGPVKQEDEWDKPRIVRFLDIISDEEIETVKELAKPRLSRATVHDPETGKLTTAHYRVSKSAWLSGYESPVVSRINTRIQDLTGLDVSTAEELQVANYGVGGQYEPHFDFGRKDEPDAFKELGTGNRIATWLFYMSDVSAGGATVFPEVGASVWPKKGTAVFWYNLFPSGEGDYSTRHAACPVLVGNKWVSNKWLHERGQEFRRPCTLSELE
T1 sequence (P09102 23-515 partner): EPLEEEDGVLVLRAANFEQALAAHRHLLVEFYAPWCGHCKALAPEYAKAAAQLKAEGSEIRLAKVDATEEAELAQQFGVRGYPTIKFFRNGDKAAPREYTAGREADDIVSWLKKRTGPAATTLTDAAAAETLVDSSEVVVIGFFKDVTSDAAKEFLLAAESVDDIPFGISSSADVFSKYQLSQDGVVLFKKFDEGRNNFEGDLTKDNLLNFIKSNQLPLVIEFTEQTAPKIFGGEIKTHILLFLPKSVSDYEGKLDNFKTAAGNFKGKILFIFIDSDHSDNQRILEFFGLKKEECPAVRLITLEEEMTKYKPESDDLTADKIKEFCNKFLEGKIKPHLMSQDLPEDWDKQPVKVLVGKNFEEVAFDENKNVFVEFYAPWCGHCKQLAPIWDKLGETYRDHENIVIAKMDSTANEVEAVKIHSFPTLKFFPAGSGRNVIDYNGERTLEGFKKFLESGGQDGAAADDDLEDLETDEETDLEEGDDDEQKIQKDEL
Experimental: (a) An in vitro enzyme assay system, which assesses the inhibitory properties of a test compound in a cell free system using a highly purified preparation of prolyl 4-hydroxylase. The enzyme preparation was obtained using the method described by N. Kedersha and R. Berg (Collagen Related Research, 1:345 (1981)) and the activity of a test compound was measured using the method described by C. J. Cunliffe, T. J. Franklin and R. Gaskell (Biochem. J., 240:617 (1986)).

[2] = test system: embryonic chick tendon cells; assay: embryonic chick tendon cells: inhibition of hydroxylation of prolyl residues within collagen (test (b)); format: cell-based; settings: Gallus gallus, hydroxylation of prolyl residues in collagen
Experimental: (b) An in vitro assay system involving incubating embryonic chick tendon cells in the presence of a test compound and measuring the inhibition of hydroxylation at the 4-position of prolyl residues within the available collagen. The embryonic chick tendon cells were prepared from the leg tendons of 17-day chick embryos using the method of P. Dehm and D. Prockop (Biochem. Biophys Acta, 240:358 (1971)). The cells were incubated in the presence of [^14C]- and [^3H]-labelled L-proline and the extent of hydroxylation at the 4-trans-position of the prolyl residues within the collagen was determined using the procedure described by T. J. Franklin and M. Hitchen (Biochem. J, 261:127-130 (1989)).

[3] = test system: 3T6 cells; assay: 3T6 cells: inhibition of hydroxylation of prolyl residues within collagen (test (c)); format: cell-based; settings: hydroxylation of prolyl residues in collagen
Experimental: (c) An in vitro assay involving incubating cultures of 3T6 cells with a test compound and [^14C]- and [^3H]-labelled L-proline, and measuring the inhibition of hydroxylation at the 4-trans-position of prolyl residues within the available collagen using the procedure described by T. J. Franklin and M. Hitchen (Biochem. J., 261:127-130 (1989)).

[4] = test system: collagen within the uteri of immature female rats; assay: in vivo inhibition of prolyl hydroxylation within collagen in uteri of immature female rats (test (d)); settings: Rattus norvegicus, po; 50 mg/kg orally, compound dosed 2 hours before proline administration
Experimental: (d) An in vivo assay involving the measurement of the inhibition by a test compound of hydroxylation at the 4-trans-position of prolyl residues within collagen within the uteri of immature (20-21 day) female rats. The test compounds were administered either orally or intraperitoneally to the rats in which uterine collagen synthesis had been stimulated by the subcutaneous administration of a solution of oestradiol benzoate (0.5 μg on each of two successive days) in arachis […] oil. The rats were dosed with 5 μCuries of [^14C]-L-proline and the uteri were taken 2 hours after the dosing of the radiolabelled proline and sonicated. Collagen was extracted by treatment of the tissue with water at 120° C. for 1 hour in an autoclave and hydrolysed by treatment with 6N hydrochloric acid for 18 hours at reflux temperature. The proline and 4-hydroxyproline residues were separated by column chromatography on a reversed-phase Spherisorb S5ODS1 column using as eluent a 89.9:10:0.1 v/v mixture of water:isopropanol:trifluoroacetic acid to which 0.3% w/v of sodium dodecylsulphate had been added. The ratio of radioactivity found in each of the proline and 4-hydroxyproline fractions was determined by liquid scintillation counting to allow the measurement of the inhibition of hydroxylation by a test compound.

[5] = test system: granulation tissue in wound chamber; assay: in vivo wound chamber model; design: species or system rat
Experimental: (e) An in vivo wound chamber model involving the measurement of histological changes in granulation tissue. The test compounds were tested in rats according to the procedures generally described in Schilling et al., Surgery 46(4):702-710 (1959), Hunt et al., Am. J. Surgery 114:302-307 (1967), and Grotendorst et al., J. Clin Inves. 76:2323-2329 (1985). More specifically, stainless wire mesh cylinders were implanted subcutaneously under the back skin of rats (two chambers per animal). The compounds of the present invention were then dissolved in DMSO and injected into each chamber on a daily basis at various concentrations from either day 0-14 or day 7-14. On day 14, the chambers were collected and the granulation tissues contained within the chambers were collected for biochemical (collagen content) or histological evaluation.
Following the in vivo wound chamber model described above, fourteen of the claimed compounds tested to determine the effectiveness of the claimed compounds in inhibiting collagen deposition in the wound chamber.

[6] = test system: isoproterenol-induced myocardial fibrosis; assay: rat isoproterenol-induced myocardial fibrosis model; format: in vivo; settings: left ventricular function at week 6; 50 mg/kg oral gavage twice daily day 4 to day 11
Source text: (§1) (f) Various in vivo animal models to determine the applicability of utilizing the compounds of the present invention to treat fibrotic disorders specific to certain cell types or organs. For example, a cardiac fibrosis model in rats, as generally described in Kondo et al., Cardiovascu. Res. 21:248-254 (1987), and Benjamin et al., Circulation Res. 65(3):657-670 (1989), may be used to measure the effectiveness of the compounds of the present invention to inhibit cardiac fibrosis, as well as provide evidence of the regeneration of cardiac cells upon inhibition of fibrotic cell proliferation. Similarly, the left carotid artery injury model, as described generally in Clowes et al., Lab Invest. 49:327-33 (1983), Muller et al., Am. Col. […]
The effectiveness of one of the compounds of the present invention to inhibit cardiac fibrosis and permit the regeneration of cardiac cells was tested in the cardiac fibrosis model generally described above. […] The compound was administered after suspension in 1% CMC at 50 mg/kg by oral gavage twice daily from day 4 to day 11 and histological data was evaluated on day 11 by general histology (H&E and trichrome) and immunohistochemical staining for proliferating cell nuclear antigen (PCNA). Cardiac function (left ventricular function) was measured by inserting a catheter into the left ventricle for measurement of relaxation and contraction pressure on week 6.

[7] = test system: balloon injured carotid arteries; assay: rat restenosis model (balloon carotid artery injury); format: in vivo; settings: 50 mg/kg oral gavage twice daily day 0-14; day 14
Source text: as §1, with “Col. Cardio. 19(2):418 (1992), and Jackson, Trends Cardiovasc. Med. 4:122-130 (1994), may be used to determine the effectiveness of the compounds of the instant invention in vascular remodeling.” for “Col.”
The effectiveness of Compound 12 in vascular remodeling, as determined in a rat restenosis model, was determined by using a left carotid artery injury rat model, as generally described above. […]

[8] = test system: scar tissue in the brain following injury; assay: brain injury model; format: in vivo, rat; settings: oral gavage twice daily day 0 to 14, day 14
Source text: as §1, with “Col. Cardio. 19(2):418 (1992), and Jackson, Trends Cardiovasc. Med. 4:122-130 (1994), may be used to determine the effectiveness of the compounds of the instant invention in vascular remodeling.” for “Col.”

[9] = test system: kidney fibrosis after Adriamycin injection; assay: kidney fibrosis rat model (Adriamycin); format: in vivo
Source text: (f) Various in vivo animal models to determine the applicability of utilizing the compounds of the present invention to treat fibrotic disorders specific to certain cell types or organs. For example, a cardiac fibrosis model in rats, as generally described in Kondo et al., Cardiovascu. Res. 21:248-254 (1987), and Benjamin et al., Circulation Res. 65(3):657-670 (1989), may be used to measure the effectiveness of the compounds of the present invention to inhibit cardiac fibrosis, as well as provide evidence of the regeneration of cardiac cells upon inhibition of fibrotic cell proliferation. Similarly, the left carotid artery injury model, as described generally in Clowes et al., Lab Invest. 49:327-33 (1983), Muller et al., Am. Col. Cardio. 19(2):418 (1992), and Jackson, Trends Cardiovasc. Med. 4:122-130 (1994), may be used to determine the effectiveness of the compounds of the instant invention in vascular remodeling. Other models, such as in vivo brain injury models (see e.g., Berry et al., Acto Neurochrurgica, Suppl., 32:31-53 (1993), Logan et al., Brain Research 587:216-255 (1992)), in vivo kidney fibrosis models (see e.g., DiDonato et al., Nephron 76(2):192-200 (1997), in vivo post-surgical abdominal adhesions model (see e.g., Cohen et al., J. Trauma 30(12):S149-154 (1990), Stein & Keiser, J. Surg. Res. 11:277 (1971), Diegelman et al., J. Surg. Res. 19:239-43 (1975)) may be used to determine the effectiveness of the compounds of the instant invention to treat fibrotic disorders related to the brain, kidney, abdomen and dermis, as well as provide information related to the treatment of other major organs.
The effectiveness of the compounds of the instant invention to treat kidney fibrosis was determined using a kidney fibrosis rat model, as generally described above. More specifically, male SD rats weighing approximately 200-225 g each were injected intravenously with Adriamycin (Pharmacia, MI) on day 1 and again on day 15. The Adriamycin was dissolved in 0.5 ml sterile physiologic saline and infused slowly into the tail vein to ensure complete delivery and to avoid perivascular tissue destruction of the drug.
Three treatment groups were established following Adriamycin injections. The rats were randomly assigned to receive a twice daily gavage of Compound 12 or control (1% CMC). Five animals from each group were sacrificed on week 6, 8 or 12.

[10] = test system: dermal incisional wound; assay: dermal wound healing, rat incisional model; format: in vivo; settings: compared to control
Experimental: FIG. 6 illustrates the tensile strength on dermal incisional wound on day 7 after oral treatment of Compound 3 and Compound 12.
FIG. 7 illustrates the tensile strength of incisional wound after local injections of Compound 12.
(§2) The effectiveness of the compounds in dermal wound healing was tested using two wound healing models—rat punch model and rat incisional model—as described above.

[11] = test system: dermal punch wound; assay: dermal wound healing, rat punch model; format: in vivo; settings: compared to control
Experimental: FIG. 5 illustrates wound area after treatment of Compound 3 in the dermal punch model.
as §2

| Structure (SMILES) | IC50 [1] [nM] | IC50 [2] [nM] | IC50 [3] [nM] | inhibition at 50 mg/kg [4] [%] | melting point [°C] | response vs control in vivo at 0.05 mg ([5]; Rattus norvegicus, 50 μg dosage, injected into chamber daily, day 7-14 treatment, read-out: Mean Collagen content (% of Control) On Day 14) [%] | apoptotic cell numbers (positive staining of apoptotic cells) ([5]; wound chamber) | rebound of collagen accumulation after discontinuing administration ([5]; wound chamber, at higher doses) | Contraction pressure (dP/dt, mm Hg) [6] [mm Hg] | Relaxation pressure (Min-P, mm Hg) [6] [mm Hg] | development of neointimal formation [7] | activation of astrocytes ([8]; GFAP staining) | collagen deposition in the scar ([8]; type I collagen staining) | development of renal hypertension ([9]; twice daily gavage, versus control) | development of kidney fibrosis (histology) ([9]; twice daily gavage, versus control (1% CMC)) | Cardiac function ([9]; week 12) | long term toxicity, as measured by mean body weight and bone density ([9]; week 12) | tensile strength of wound [10] | healing time [11] |
| --- | --- | --- | --- | --- | --- | --- | --- | --- | --- | --- | --- | --- | --- | --- | --- | --- | --- | --- | --- |
| CCCCN(CC)C(=O)c1cnc2c3c(ccc2c1)C(=O)C(C(=O)O)C=N3 (stereo not shown) [Example 2, 8-(N-butyl-N-ethylcarbamoyl)-3-carboxy-4-oxo-3,4-dihydro-1,10-phenanthroline] | 400 | 1200 | 5400 | 46 | 236 to 237 |  |  |  |  |  |  |  |  |  |  |  |  |  |  |
| O=C(O)C1C=Nc2c(ccc3cccnc23)C1=O (stereo not shown) [Compound 12, 3-carboxy-4-oxo-3,4-dihydro-1,10-phenanthroline] |  |  |  |  |  | 80.7 | dose-dependently increased positive staining of apoptotic cells | prevented rebound of collagen accumulation | 5770 ± 95.1 | 2.7 ± 0.8 | significantly reduce the development of neointimal formation | decreased the activation of actrocytes | reduced collagen deposition in the scar | blocked the development of renal hypertension | prevented the development of kidney fibrosis | improved | not material | reduced tensil strength | increased healing time |

— US20010001101A1, “Phenanthroline derivatives” (Zeneca Limited, priority 1997, published 2001)
